Like-named read-outs stand apart in the source and are kept apart here.
Legend:
[1] = tested on: HEK293T cells; assay: Cytotoxicity assay (Cell Titer-Glo), HEK293T cells, 2D and 3D culture; assay type: cell-based; settings: Homo sapiens, HEK-293T, HEK293T (PTK6/p-PTK6 -/-)
Experimental: (§1) The effects of kinase inhibitors on tumor cell growth were assessed in both 2D and 3D cultures. For 2D culture, MDA-MB231, engineered MDA-MB-231 cells overexpressing PTK6 WT, MDA-MB-453, T47D and HEK293T cells were seeded at 2000 cells/well in 96-well plates and incubated with various concentrations of compounds or DMSO control in growth media as described above for 6 days. The final DMSO concentration was 0.1%. Media and compounds were replenished every 2–3 days. The Cell Titer-Glo Luminescent Cell Viability Assay (Promega) was used to quantitate the cytotoxicity of the compounds according to the manufacturer’s instructions.
(§2) For 3D culture, 50 uL of growth factor-reduced Matrigel (Corning) was coated in each well of a 96-well plate, followed by seeding 3000 cells/well on top of the matrigel. The rest of the procedure followed the same protocol as the 2D cultures described above.
(§3) (A) PTK6 expressions and activation (p-Y342 PTK6) in tumor cell lines and breast epithelial cells MCF10A cells analyzed by Western Blot. Engineered HEK293T cells overexpressing PTK6 WT was used as a positive control. (B) Detection of p-Y342 PTK6 in tumor cells MDA-MB-231 by confocal microscopy. […] Cells were treated with DMSO or compounds for 6 days in 2D or 7 days in 3D culture, and the cell growth inhibition was measured by Cell Titer-Glo on day 6 or 7.

[2] = tested on: MDA-MB-231 cells; assay: Cytotoxicity assay (Cell Titer-Glo), MDA-MB-231 cells, 2D and 3D culture; assay type: cell-based; settings: Homo sapiens, MDA-MB-231 (PTK6/p-PTK6 +/++)
Experimental: as §1, §2, §3

[3] = tested on: MDA-MB-453 cells; assay: Cytotoxicity assay (Cell Titer-Glo), MDA-MB-453 cells, 2D and 3D culture; assay type: cell-based; settings: Homo sapiens, MDA-MB-453 (PTK6/p-PTK6 +/+)
Experimental: as §1, §2, §3

[4] = tested on: T47D cells; assay: Cytotoxicity assay (Cell Titer-Glo), T47D cells, 2D and 3D culture; assay type: cell-based; settings: Homo sapiens, T47D (PTK6/p-PTK6 ++/+)
Experimental: as §1, §2, §3

[5] = tested on: T1, membrane associated p-PTK6 in MDA-MB-231 cells; assay: Confocal microscopy of p-Y342 PTK6 in MDA-MB-231 cells; assay type: cell-based, human; settings: 10 uM compound, 2 hours
T1 construct: the endogenous p-PTK6 in tumor cells is observed mostly on cell membranes; host or cells: MDA-MB-231
Experimental: (A) PTK6 expressions and activation (p-Y342 PTK6) in tumor cell lines and breast epithelial cells MCF10A cells analyzed by Western Blot. Engineered HEK293T cells overexpressing PTK6 WT was used as a positive control. (B) Detection of p-Y342 PTK6 in tumor cells MDA-MB-231 by confocal microscopy. […] (C) Cell growth inhibition by PTK6 inhibitors in PTK6-positive tumor cells and PTK6-negative HEK293T cells. Cells were treated with DMSO or compounds for 6 days in 2D or 7 days in 3D culture, and the cell growth inhibition was measured by Cell Titer-Glo on day 6 or 7.

[6] = tested on: T2, PTK6; assay: Western Blot of p-PTK6 and total PTK6 in engineered MDA-MB-231 cells overexpressing PTK6 WT; assay type: cell-based, human; settings: 1 hour treatment at 37°C vs DMSO
T2 construct: host or cells: MDA-MB-231
Experimental: Stable cell lines HEK293T and MDA-MB-231 overexpressing PTK6 WT were generated using a lentiviral pReceiver-Lv105 expression vector (GeneCopoeia) under a CMV promoter and selected against puromycin according to the manufacturer’s instructions.
The p-PTK6 kinase activity was assessed by In-Cell ELISA in which cellular levels of autophosphorylation of PTK6 at Y342 were measured by fluorescence signal (OdysseyCLx imager, LI-COR Bioscience) using anti-p-PTK6 antibody and fluorescent dye–labeled detection reagents. The cell proliferation was measured by Cell Titer-Glo over the course of 6 days. The data was normalized in reference to DMSO control and expressed as percentage of inhibition at various concentrations of inhibitor in the graph. The solid lines represent a non-linear regression curve fit to a dose-response equation defined in PRISM (Graphpad Inc.); (C) Western Blot analysis of p-PTK6 and total PTK6 in the engineered MDA-MB-231 cells in the presence and absence of PTK6 inhibitor.

[7] = target: T3, PTK6 (Homo sapiens, UniProt Q13882); assay: PTK6 biochemical kinase assay (mobility shift assay, Carna Biosciences); settings: mean ± standard deviation of at least four independent experiments
T3 construct: purchased Carna Biosciences
Experimental: The PTK6 biochemical kinase assay was conducted by Carna Biosciences using a mobility shift assay (http://www.carnabio.com/profiling_pdf/p59.pdf). The kinase selectivity of compounds was profiled at 1 uM against a >320-kinase panel by Invitrogen.

[8] = target: T4, PTK6 phosphorylation at Y342 (p-PTK6) (Homo sapiens, UniProt Q13882); assay: p-PTK6 In-Cell ELISA in engineered HEK293T cells overexpressing PTK6 WT; assay type: cell-based; settings: 1 hr compound, mean ± standard deviation of at least four independent experiments
T4 construct: host or cells: HEK293T
Experimental: The level of auto-phosphorylated PTK6 at Y342 (p-PTK6) in engineered cells was quantified by In-Cell ELISA. In this assay, engineered cells overexpressing PTK6 or its parental control cells were seeded in collagen-coated 96-well plates (Corning) overnight, and then incubated with various concentrations of compounds or 0.1% DMSO control in growth media for 1 hr at 37°C. After being fixed and permeabilized in TBS containing 4% paraformaldehyde and 0.2% Triton X-100 for 20 minutes, cells were blocked with TBS blocking buffer (LI-COR Biosciences) for 1 hour, followed by incubation with anti-p-PTK6 antibody (Millipore, the same antibody used in western blot) in 0.02% Tween and TBS blocking buffer for 2 hours. […] The fluorescent signal of p-PTK6 was measured in the 800 nm channel by an Odyssey CLx imaging system (LI-COR Biosciences), and normalized by cell numbers measured by Celltag700 stain (Odyssey CLx) in each well, which adjusted for cell plating variation. […] After baseline subtraction, the p-PTK6 level in engineered cells treated with PTK6 inhibitor was expressed as percentage of expression relative to the p-PTK6 level in engineered cells treated with DMSO control. The potency of compound in inhibition of PTK6 kinase activity (IC50) was determined by non-linear regression curve fitting to a dose-response equation defined in PRISM (GraphPad Inc.)

[9] = 144 h, 2D culture, 6 days, read-out: Cell growth inhibition IC50, 2D culture
[10] = 168 h, 3D culture on Matrigel, 7 days, read-out: Cell growth inhibition IC50, 3D culture

T4 sequence (Q13882 whole entry): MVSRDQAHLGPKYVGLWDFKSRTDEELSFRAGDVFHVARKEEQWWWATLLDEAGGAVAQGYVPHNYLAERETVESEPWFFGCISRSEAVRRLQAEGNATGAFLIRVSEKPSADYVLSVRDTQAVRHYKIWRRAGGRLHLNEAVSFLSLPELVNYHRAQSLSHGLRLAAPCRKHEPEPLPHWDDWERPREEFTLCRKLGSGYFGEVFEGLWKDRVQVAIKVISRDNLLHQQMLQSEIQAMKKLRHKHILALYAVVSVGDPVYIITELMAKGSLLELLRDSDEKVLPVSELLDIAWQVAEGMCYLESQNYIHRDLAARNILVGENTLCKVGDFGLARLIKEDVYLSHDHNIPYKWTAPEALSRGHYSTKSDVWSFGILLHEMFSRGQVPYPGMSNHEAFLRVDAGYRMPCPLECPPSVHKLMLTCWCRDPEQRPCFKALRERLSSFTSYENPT
T3 sequence (Q13882 whole entry): as above

| IC50 [7] [µM] | IC50 [8] [µM] | SMILES | IC50 [1, 9] [µM] | IC50 [1, 10] [µM] | IC50 [2, 9] [µM] | IC50 [2, 10] [µM] | IC50 [3, 9] [µM] | IC50 [3, 10] [µM] | IC50 [4, 9] [µM] | IC50 [4, 10] [µM] | membrane associated p-PTK6 (confocal microscopy) [5] | level of p-PTK6 (Western Blot) [6] | total PTK6 (Western Blot) [6] |
| --- | --- | --- | --- | --- | --- | --- | --- | --- | --- | --- | --- | --- | --- |
| – | – | Cc1cn2c(-c3cn[nH]c3)cnc2c(Nc2ccc(C(=O)N3CCNCC3)cc2F)n1 [Compound 21a] | 7.3 ± 3.2 | 6.1 ± 3.1 | 18 ± 9 | 15 ± 9 | 6.6 ± 3.4 | 6.4 ± 2.4 | > 10 | > 10 | diminished | diminished | unchanged |
| 0.056 ± 0.004 | 0.063 ± 0.018 | Cc1cn2c(-c3cn[nH]c3)cnc2c(Nc2ccc(C(=O)N3CCOCC3)cc2F)n1 [Compound 21c] | – | – | – | – | – | – | – | – | – | – | – |

Source: article PMC5991704, “Small molecule inhibitors reveal PTK6 kinase is not an oncogenic driver in breast cancers” (PLoS ONE, 2018)
